Measured values reported in article PMC7385619, “A triple action CDK4/6-PI3K-BET inhibitor with augmented cancer cell cytotoxicity” (Cell Discovery, 2020).
pIC50: −log10 of the molar value.

What was measured:
Assay type in all cases: cell-based
[1] = system: Hepatocellular carcinoma cells (Hep3B, HepG2, and Huh7); assay: Cell viability (cytotoxicity) assay, hepatocellular carcinoma cells; settings: Homo sapiens; 48 hours, CCK8 or Alamar Blue; curves of Fig. 1f-j; read-out: Half maximal inhibitory concentration (IC50) in cell line cytotoxicity assays, Hepatocellular Carcinoma
[2] = system: neuroblastoma cells (CHLA-255, CHLA-136, and SMS-KNCR); assay: Cell viability (cytotoxicity) assay, neuroblastoma cells; settings: Homo sapiens, 48 hours, CCK8 or Alamar Blue, curves of Fig. 1f-j, read-out: Half maximal inhibitory concentration (IC50) in cell line cytotoxicity assays, Neuroblastoma
[3] = system: mantle cell lymphoma (Granta-519, Mino, and Jeko-1); assay: Cell viability (cytotoxicity) assay, mantle cell lymphoma cells; settings: Homo sapiens; 48 hours, CCK8 or Alamar Blue; curves of Fig. 1f-j; read-out: Half maximal inhibitory concentration (IC50) in cell line cytotoxicity assays, Mantle Cell Lymphoma

CC(=O)c1c(C)c2cnc(Nc3ccc(N4CCNCC4)cn3)nc2n(C2CCCC2)c1=O [Palbociclib, reference compound]
pIC50 [1]: 4.92 | pIC50 [2]: 5.04 | pIC50 [3]: 5.08
